Measured values taken from patent US20250255891A1, “PHARMACEUTICAL COMPOSITION INJECTABLE INTO URINARY TRACT ORGAN CAVITY FOR PREVENTION OR TREATMENT OF UROTHELIAL CANCER” (NATIONAL UNIVERSITY CORPORATION KAGAWA UNIVERSITY, priority 2019, published 2025).

Assays:
[1] = system: J82; test: Cell survival assay (MTT assay), urothelial cancer cell line J82; type: cell-based, human
Method: (§1) Three human urothelial cancer cell lines (RT112, 253J, and J82) were used to analyze the antitumor effect of rare sugars. Ten rare sugars of L-allulose, D-allulose, D-allose, L-fructose, D-mannose, L-sorbose, D-tagatose, D-galactose, D-sorbose, and L-tagatose were used, and D-glucose and D-fructose were used as monosaccharides other than the rare sugars. A minimum essential medium (MEM) containing D-glucose at 1,000 mg/l was used as the culture medium, and the antitumor effect of a rare sugar was evaluated in a prepared MEM containing a monosaccharide or a rare sugar at 10 mM, 25 mM, or 50 mM [in the drawings, indicated by (10), (25), or (50)]. An MEM containing no sugar was used for control. With the MEM, cell suspensions each at 5.0×10^4 cells/ml were prepared. Each suspension was distributed in a 96-well plate at 0.1 ml/well and then was incubated for 24 hours. The culture solution was then removed, next a culture solution containing a monosaccharide or a rare sugar at 10 mM, 25 mM, or 50 mM in the MEM was added at 0.1 ml/well, and the whole was incubated for 24 hours (#1 to #13). An MTT assay is a test method for determining survival and uses a color reaction of an insoluble formazan pigment (blue) formed by reduction of MTT as a tetrazolium salt. […] The coloration is measured with a microplate reader to determine the cell survival rate.

[2] = system: RT112; test: Cell survival assay (MTT assay), urothelial cancer cell line RT112; type: cell-based, human
Method: as §1

[3] = Basic safety tests (mutagenicity, biodegradability, acute oral toxicity, primary skin irritation, primary eye irritation); settings: tests ordered to a designated laboratory
From the text: The safety of D-allose required for use as a pharmaceutical component is probably sufficient because the rare sugar is a monosaccharide present even in a trace amount in nature. Mutagenicity test, biodegradability test, and three acute toxicity tests (acute oral toxicity test, primary skin irritation test, and primary eye irritation test) are established as the most basic safety tests.

[4] = system: 253J; test: Cell survival assay (MTT assay), urothelial cancer cell line 253J; type: cell-based, human
Method: as §1

[5] = compared with 11 other monosaccharides/rare sugars at 10-50 mM

With O=C[C@H](O)[C@H](O)[C@H](O)[C@H](O)CO [D-allose] the “survival rate as compared with the control” value ([1]; 10 mM, 25 mM and 50 mM in MEM, 24 hours, p<0.05, FIG. 3) was “significantly reduced the survival rate”, the “antitumor effect relative to the other analyzed sugars” value [1, 5] was “strongest antitumor effect among the analyzed sugars” and the “survival rate as compared with the control” value ([2]; 10 mM, 25 mM and 50 mM in MEM, 24 hours, p<0.05, FIG. 1) was “significantly reduced the survival rate”. The “antitumor effect relative to the other analyzed sugars” value [2, 5] was “strongest antitumor effect among the analyzed sugars”, the “result of basic safety tests” value [3] was “sufficient safety” and the “survival rate as compared with the control” value ([4]; 10 mM, 25 mM and 50 mM in MEM, 24 hours, p<0.05, FIG. 2) was “significantly reduced the survival rate”. For the same molecule, the “antitumor effect relative to the other analyzed sugars” value [4, 5] was “strongest antitumor effect among the analyzed sugars”.
